Measurements published in patent US11530514B2, “Method for manufacturing a fibrous web” (Kemira Oyj, priority 2017, dated 2022).
Counter-ions that a name gives are not always drawn.

How the values were obtained:
Type in all cases: cell-based
total aerobic bacteria [1] = assay: Example 3: total aerobic bacteria count in paper machine process water, biocidal pre-treatment; settings: sodium hypochlorite 5 ppm as active chlorine (1 min pre-treatment) and/or DGH 100 ppm as active, untreated 7 000 000
Description: (§1) Objective of this laboratory test was to study effect of biocidal pre-treatment on bacterial killing and spore sensitisation efficacy of a germinant surfactant comprising 35 weight-% of dodecylguanidine hydrochloride (DGH) and dipropyleneglycol as solvent in paper machine process water.
Authentic circulation water (1 litre) was collected from a paper machine producing food packaging board and divided into 4 samples with volume of 50 ml. To obtain equal bacterial spore content in the samples at start of the experiment, each sample was spiked with additional bacterial spores. The target level for spores was c.a. 10 000 CFU/ml. The spore solution for spiking was prepared as follows: authentic spore-forming bacteria that were isolated from a paper making process were pre-grown for 2 days at +37° C. in modified nutrient broth, after which the mature spores were harvested, and washed by using centrifugation and cold water. […]
Samples were stored at 45° C., under mixing of 180 rpm, for 30 minutes except samples 2 and 4, which were in addition pre-treated with sodium hypochlorite for 1 minute. After the treatment the amount of total aerobic bacteria (non-pasteurized samples) and aerobic spores were quantified (plate count agar, +32° C., 2 days incubation). […]

aerobic spores [2] = assay: Example 2: aerobic spore count in stagnant 2 d old broke diluted with circulation water
Description: (§2) Authentic broke and circulation water samples were collected from an alkaline paper mill producing food packaging board. 1 litre of broke was stored for 2 days, +45° C., with closed cap, without mixing, in order to induce anaerobism and thus bacterial sporulation. This stagnant sample was divided to four 100 ml samples, out of which two replicate samples were treated with a germinant surfactant comprising 35 weight-% dodecylguanidine hydrochloride (DGH) and dipropyleneglycol as solvent. The dosage was 70 mg/L as active DGH. Two replicates were left without any chemical additions as reference samples.
(§3) After chemical contact time of 5 min, all samples were diluted three times with the circulation water and incubated for 30 minutes, at +45° C., mixing of 160 rpm. Total aerobes (PCA, +37° C.) and aerobic spores (PCA, +37° C.) were measured at start from reference samples and after the total contact time of 35 min from all samples.

total aerobic bacteria [3] = assay: Example 1: total aerobic bacteria count in paper machine water/broke at variable pulp consistency; settings: for Bacterial killing efficacy (%): DGH 100 mg/L as active vs no addition; for Total aerobic bacteria (+32° C., 2 d PCA): DGH 100 mg/L as active, 30 min, 45° C.
Source text: (§4) Objective of this laboratory test was to study bacterial killing and spore sensitisation effect of a germinant surfactant composition comprising 35 weight-% of dodecylguanidine hydrochloride (DGH) and dipropyleneglycol as solvent in paper machine process water, at variable pulp consistency.
(§5) Authentic circulation water, with low fibre content, and authentic broke, with high fibre content, were collected from a paper machine, which produced food packaging board. Circulation water and broke samples were mixed together to obtain 6 samples in total, at 3 different pulp consistency levels.
(§6) To obtain equal bacterial spore content in the samples at the start of the experiment, each sample was spiked with additional bacterial spores. Target spore level in the sample was set to ca. 10 000 CFU/ml. The spore solution for spiking was prepared as follows: authentic spore-forming bacteria that were isolated from a paper making process were pre-grown for 2 days at +37° C. in a modified nutrient broth, after which the mature spores were harvested, and washed by using centrifugation and cold water.
(§7) Out of the 6 samples, 3 test samples were treated with germinant surfactant comprising dodecylguanidine hydrochloride (DGH) and 3 samples were left without any chemical addition as reference samples. After addition of germinant surfactant, the test samples as well as the reference samples (no addition) were stored at 45° C., mixing of 180 rpm, for 30 minutes, followed by quantification of total aerobic bacteria (non-pasteurized samples) and aerobic spores (plate count agar, +32° C., 2 days incubation). Prior to the aerobic spore determination, samples were pasteurized at +82° C. for 10 min. Weight of suspended solids per litre of liquid, i.e. pulp consistency, was determined at the end of the test (dry weight of sample per total weight of sample).

total aerobic bacteria [4] = assay: Example 2: total aerobes count in stagnant 2 d old broke diluted with circulation water; settings: DGH 70 mg/l active 5 min, total contact time 35 min, +45° C., untreated 9×10^6 CFU/ml
Description: as §2, §3

aerobic spores [5] = assay: Example 1: aerobic spore count in spiked paper machine water/broke at variable pulp consistency; settings: for Spore reduction (%): DGH 100 mg/L as active vs no addition; for Aerobic spores, cfu/ml (+82° C., 10 min, +32° C., 2 d PCA): DGH 100 mg/L as active, 30 min, 45° C.
Source text: as §4, §5, §6, §7

aerobic spores [6] = assay: Example 3: aerobic spore count in spiked paper machine process water, biocidal pre-treatment
Description: as §1
Authentic circulation water (1 litre) was collected from a paper machine producing food packaging board and divided into 4 samples with volume of 50 ml. To obtain equal bacterial spore content in the samples at start of the experiment, each sample was spiked with additional bacterial spores. The target level for spores was c.a. 10 000 CFU/ml. The spore solution for spiking was prepared as follows: authentic spore-forming bacteria that were isolated from a paper making process were pre-grown for 2 days at +37° C. in modified nutrient broth, after which the mature spores were harvested, and washed by using centrifugation and cold water. Out of the 4 samples, • the first sample was left without any chemical addition as a reference sample. • the second sample was treated with sodium hypochlorite, at dosage of 5 mg/I, given as active chlorine; • the third sample was treated with a germinant surfactant comprising dodecylguanidine hydrochloride (DGH), at dosage level of 100 mg/I, given as active compound; and • the fourth sample was treated with sodium hypochlorite, at dosage of 5 mg/I, given as active chlorine) for 1 minute, after which the […] sample was treated with a germinant surfactant comprising dodecylguanidine hydrochloride (DGH), at dosage level of 100 mg/I, given as active compound;
Samples were stored at 45° C., under mixing of 180 rpm, for 30 minutes except samples 2 and 4, which were in addition pre-treated with sodium hypochlorite for 1 minute. After the treatment the amount of total aerobic bacteria (non-pasteurized samples) and aerobic spores were quantified (plate count agar, +32° C., 2 days incubation). Prior to the aerobic spore determination, samples were pasteurized at +82° C. for 10 min.

Compound | Total aerobic bacteria PCA +32, 30 min @45° C. (total aerobic bacteria [1]) | level of aerobic spores (aerobic spores [2]; stagnant 2 d old broke, DGH 70 mg/l active 5 min, diluted, total contact time 35 min, +45° C., untreated 330 CFU/ml) [CFU/ml] | spore reduction (aerobic spores [2]; stagnant diluted broke, DGH 70 mg/l active) [%] | Bacterial killing efficacy (%) (total aerobic bacteria [3]; pulp consistency 0.1 w/w-%) | Total aerobic bacteria (+32° C., 2 d PCA) (total aerobic bacteria [3]; pulp consistency 0.1 w/w-%) | Bacterial killing efficacy (%) (total aerobic bacteria [3]; pulp consistency 3 w/w-%) | Total aerobic bacteria (+32° C., 2 d PCA) (total aerobic bacteria [3]; pulp consistency 3 w/w-%) | Bacterial killing efficacy (%) (total aerobic bacteria [3]; pulp consistency 6 w/w-%) | Total aerobic bacteria (+32° C., 2 d PCA) (total aerobic bacteria [3]; pulp consistency 6 w/w-%) | total aerobic bacteria level (total aerobic bacteria [4]) | spore reduction (aerobic spores [5]; process streams with different pulp consistencies (summary of Example 1)) [%] | Spore reduction (%) (aerobic spores [5]; pulp consistency 0.1 w/w-%) | Aerobic spores, cfu/ml (+82° C., 10 min, +32° C., 2 d PCA) (aerobic spores [5]; pulp consistency 0.1 w/w-%) [cfu/ml] | Spore reduction (%) (aerobic spores [5]; pulp consistency 3 w/w-%) | Aerobic spores, cfu/ml (+82° C., 10 min, +32° C., 2 d PCA) (aerobic spores [5]; pulp consistency 3 w/w-%) [cfu/ml] | Spore reduction (%) (aerobic spores [5]; pulp consistency 6 w/w-%) | Aerobic spores, cfu/ml (+82° C., 10 min, +32° C., 2 d PCA) (aerobic spores [5]; pulp consistency 6 w/w-%) | spore reduction (aerobic spores [6]; DGH 100 mg/l active, with or without sodium hypochlorite 5 mg/l pre-treatment, vs untreated) [%] | Aerobic spores PCA +32 30 min @45° C. (aerobic spores [6]; pasteurized +82° C. 10 min, sodium hypochlorite 5 ppm as active chlorine and/or DGH 100 ppm as active, untreated 13 000) | effect on bacterial spores (aerobic spores [6]; sodium hypochlorite 5 mg/l as active chlorine)
CCCCCCCCCCCCNC(=N)N [DGH, dodecylguanidine hydrochloride] | 10 000 CFU/ml | 120 | > 60 | 100 | 300 | 78 | 9 000 | 55 | 77 000 | 2×10^6 CFU/ml | > 45 | 98 | 400 | 87 | 700 | 45 | 2 800 cfu/ml | > 70 | – | –
OCl [sodium hypochlorite] | – | – | – | – | – | – | – | – | – | – | – | – | – | – | – | – | – | – | 17 000 CFU/ml | did not have any effect on bacterial spores
